Among the data in patent US10357481B2 (MERCK SHARP & DOHME CORP., priority 2015, dated 2019) are Ki values, retold here.

What is called Ki is a measure of affinity in units of concentration, obtained from inhibition or displacement.

Each structure is given as a SMILES string.

The target in this assay is T1, human PDE2A1 (Homo sapiens, UniProt O00408).
T1 construct: GST; purchased BPS Bioscience (San Diego, Calif.) 60020; host or cells: insect cells
Nature of the assay: IMAP FP PDE selectivity panel, human PDE2A1. As to conditions: Lab B; read-out: Human PDE2 Ki (nM) Lab B. It counts as biochemical. In short, it runs like this: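 IMAP FP read-out, run at room temperature in parallel with PDE1–11: enzyme at 20% substrate conversion, 50 nM FAM-cAMP containing 1000 nM cGMP, Tris pH 7.2/MgCl2/DTT buffer. Compounds as ten 3-fold dilutions. Reaction 60 min, stopped with binding reagent for 1 h before polarization measurement.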

T1 sequence (O00408 1-920 isoform O00408-2): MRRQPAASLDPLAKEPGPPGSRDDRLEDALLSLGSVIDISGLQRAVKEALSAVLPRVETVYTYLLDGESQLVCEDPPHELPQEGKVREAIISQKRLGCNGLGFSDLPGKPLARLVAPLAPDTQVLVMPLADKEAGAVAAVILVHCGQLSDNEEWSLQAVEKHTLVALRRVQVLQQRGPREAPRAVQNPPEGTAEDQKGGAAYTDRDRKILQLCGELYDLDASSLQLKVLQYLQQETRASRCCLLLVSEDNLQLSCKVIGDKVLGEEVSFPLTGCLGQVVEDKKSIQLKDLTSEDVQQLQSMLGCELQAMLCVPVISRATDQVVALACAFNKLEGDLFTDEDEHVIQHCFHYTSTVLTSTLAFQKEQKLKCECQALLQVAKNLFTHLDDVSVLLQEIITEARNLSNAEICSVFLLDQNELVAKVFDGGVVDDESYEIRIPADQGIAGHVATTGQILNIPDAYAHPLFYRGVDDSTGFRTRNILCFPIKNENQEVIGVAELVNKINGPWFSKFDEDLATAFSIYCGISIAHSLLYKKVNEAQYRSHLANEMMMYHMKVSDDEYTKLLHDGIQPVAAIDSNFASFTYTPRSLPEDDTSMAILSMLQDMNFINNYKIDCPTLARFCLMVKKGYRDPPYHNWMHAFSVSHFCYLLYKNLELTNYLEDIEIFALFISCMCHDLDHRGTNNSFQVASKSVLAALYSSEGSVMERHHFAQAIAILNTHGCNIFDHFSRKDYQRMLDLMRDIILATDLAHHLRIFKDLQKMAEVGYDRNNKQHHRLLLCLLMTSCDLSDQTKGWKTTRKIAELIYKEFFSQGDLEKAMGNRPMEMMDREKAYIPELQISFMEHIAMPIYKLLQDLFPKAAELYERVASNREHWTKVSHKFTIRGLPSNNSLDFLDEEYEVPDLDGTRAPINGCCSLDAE

As to `Cc1cc(N(C)C2(c3ccc(C(F)(F)F)c(F)c3)CC2)n2ncnc2n1` [Example 246], the Ki was 46 nM.

Regarding `CC(C)(N)C(Nc1cc(C(F)(F)F)nc2ncnn12)c1ccc(C(F)(F)F)c(F)c1` (single isomer, unassigned) [Example 254, (S)- or (R)-1-(3-Fluoro-4-(trifluoromethyl)phenyl)-2-methyl-N^1-(5-(trifluoromethyl)-[1,2,4]triazolo [1,5-a]pyrimidin-7-yl) propane-1,2-diamine], the inhibitory constant (Ki) was above 2960 nM.

Take `CCc1nc2nc(C)cc(NC3(c4ccc(C(F)(F)F)c(F)c4)CC3)n2n1` [Example 193, 2-Ethyl-N-(1-(3-fluoro-4-(trifluoromethyl)phenyl)cyclopropyl)-5-methyl-[1,2,4]triazolo [1,5-a]pyrimidin-7-amine]: the Ki came out at 142 nM.

As to `CC(C)(O)C(Nc1cc(C2CC2)nc2ncnn12)c1ccc(OC(F)(F)F)c(F)c1` (single isomer, unassigned) [Example 141, (1R or S)-1-[(5- Cyclopropyl [1,2,4]triazolo [1,5-a]pyrimidin-7-yl)amino]-1-[3-fluoro-4-(trifluoro-methoxy)phenyl]-2-methylpropan-2-ol], the inhibitory constant (Ki) came to 877 nM.

For `Cc1cc(N[C@H](c2ccc(C(F)(F)F)c(F)c2)C(C)(C)O)nc2ncnn12` (single isomer, unassigned) [Example 291], the Ki was found to be 183 nM.

Take `CC(C)(O)C(Nc1cc(C(F)F)nc2ncnn12)c1ccc(OC(F)(F)F)c(F)c1` (single isomer, unassigned) [Example 187, (1S or R)-{[5-(Difluoromethyl) [1,2,4]triazolo [1,5-a]pyrimidin-7-yl]amino}-1-[3-fluoro-4-(trifluoromethoxy)phenyl]-2-methylpropan-2-ol]: the Ki was determined as 5.5 nM.

Regarding `Cc1cc(NC(c2ccc(C3(C)CC3)cc2)C(C)(C)O)n2ncnc2n1` (single isomer, unassigned) [Example 121, (1R or S)-2-Methyl-1-[4-(1-methyl-cyclopropyl)phenyl]-1-[(5-methyl[1,2,4]triazolo[1,5-a]pyrimidin-7-yl)amino]propan-2-ol], the inhibitory constant (Ki) was 11 nM.

In the case of `CC[C@@H](Nc1cc(C)nc2ncnn12)c1ccc(SC(F)(F)F)c(F)c1` [Example 18, N-[(1R)-1-{3-Fluoro-4-[(trifluoromethyl)sulfanyl]phenyl}propyl]-5-methyl[1,2,4]triazolo[1,5-a]pyrimidin-7-amine], the Ki worked out at 15 nM.

As for `CN(C)c1cc(N[C@@H](c2ccc(C(F)(F)F)c(F)c2)C(C)(C)O)n2ncnc2n1` (single isomer, unassigned) [Example 244], the Ki worked out at 377 nM.

Take `COc1cc(C(F)(F)F)ccc1C(C)(C)Nc1cc(C)nc2ncnn12` [Example 48, N-{1-[2-Methoxy-4-(trifluoromethyl)phenyl]-1-methylethyl}-5-methyl [1,2,4]triazolo[1,5-a]pyrimidin-7-amine]: the inhibition constant Ki is 474 nM.

As for `OCCc1cc(NC2(c3ccc(C(F)(F)F)c(F)c3)CC2)n2ncnc2n1` [Example 251, 2-(7-(1-(3-Fluoro-4-(trifluoromethyl)phenyl)cyclopropylamino)-[1,2,4]triazolo[1,5-a]pyrimidin-5-yl)ethanol], the inhibitory constant (Ki) amounted to 140 nM.

`Fc1cc(C2(Nc3cc(C(F)(F)F)nc4ncnn34)CC2)ccc1C(F)(F)F` [Example 82, N-{1-[3-Fluoro-4-(trifluoromethyl)phenyl]cyclopropyl}-5-(trifluoromethyl)-[1,2,4]triazolo[1,5-a]pyrimidin-7-amine]: the inhibition constant Ki amounted to 10 nM.

On to `CC(C)(O)[C@@H](Nc1cc(C(F)F)cc2ncnn12)c1ccc(S(F)(F)(F)(F)F)cc1` [Example 282, (1S)-1-{[7-(Difluoromethyl) [1,2,4]triazolo[1,5-a]pyridin-5-yl]amino}-2-methyl-1-[4-(pentafluoro-λ^6-sulfanyl)phenyl]propan-2-ol], for which the Ki stood at 7.8 nM.

Consider `CC(C)(O)C(Nc1cc(C2CC2)nc2ncnn12)c1ccc(S(F)(F)(F)(F)F)cc1` (single isomer, unassigned) [Example 145, (1R or S)-1-[(5- Cyclopropyl [1,2,4]triazolo [1,5-a]pyrimidin-7-yl)amino]-2-methyl-1-[4-(pentafluoro-λ^6-sulfanyl)phenyl]propan-2-ol], for which the inhibition constant (Ki) worked out at 25 nM.

Consider `Cc1cc(NC(c2ccc(OC(F)(F)F)c(F)c2)C2COC2)n2ncnc2n1` (single isomer, unassigned) [Example 229, (R)- or (S)-N-((3-Fluoro-4-(trifluoromethoxy)phenyl)(oxetan-3-yl)methyl)-5-methyl-[1,2,4]triazolo [1,5-a]pyrimidin-7-amine], for which the Ki was found to be 448 nM.

With `Cc1cc(N[C@H](C)c2cc(F)c(C(F)(F)F)cc2F)n2ncnc2n1` [Example 6, N-{(1R)-1-[2,5-Difluoro-4-(trifluoromethyl)phenyl]ethyl}-5-methyl[1,2,4]triazolo[1,5-a] pyrimidin-7-amine], the inhibition constant (Ki) is 482 nM.

As for `Cc1cc(N[C@@H](c2ccc(C(F)(F)F)c(F)c2)C(C)(C)C)n2ncnc2n1` [Example 27, N-{(1R)-1-[3-Fluoro-4-(trifluoromethyl)phenyl]-2,2-dimethylpropyl}-5-methyl[1,2,4]triazolo[1,5-a] pyrimidin-7-amine], the Ki came out at 10 nM.

Regarding `Cc1cc(O[C@@H](c2ccc(C(F)(F)F)cc2)C(C)(C)C)n2ncnc2n1` (single isomer, unassigned) [Example 260], the Ki amounted to 14 nM.

Take `Cc1cc(N[C@@H](c2ccc(C(F)(F)F)c(F)c2)C(C)C)n2ncnc2n1` [Example 20, N-{(1R)-1-[3-Fluoro-4-(trifluoromethyl)phenyl]-2-methylpropyl}-5-methyl[1,2,4]triazolo[1,5-a] pyrimidin-7-amine]: the Ki worked out at 28 nM.

Regarding `CC(C)(C)c1cc(NC(c2ccc(OC(F)(F)F)c(F)c2)C(C)(C)O)n2ncnc2n1` (single isomer, unassigned) [Example 146, (1S or R)-1-[(5-tert-Butyl[1,2,4]triazolo[1,5-a]pyrimidin-7-yl)amino]-1-[3-fluoro-4-(trifluoro-methoxy)phenyl]-2-methylpropan-2-ol], the inhibition constant Ki is above 2960 nM.

For the compound `Cc1cc(NC2(c3ccc(OC(F)(F)F)c(F)c3)CC2)n2ncnc2n1` [Example 60, N-{1-[3-Fluoro-4-(trifluoromethoxy)phenyl]cyclopropyl}5-methyl-[1,2,4]triazolo[1,5-a]pyrimidin-7-amine], the inhibitory constant (Ki) was 32 nM.

Take `CC(C)(O)C(Nc1cc(C(F)F)nc2ncnn12)c1ccc(C(F)(F)F)c(F)c1` (single isomer, unassigned) [Example 228, (S)- or (R)-1-(5-(Difluoromethyl)-[1,2,4]triazolo [1,5-a]pyrimidin-7-ylamino)-1-(3-fluoro-4-(trifluoromethyl)phenyl)-2-methylpropan-2-ol]: the inhibition constant Ki was above 2960 nM.

Regarding `CC1(c2ccc(C(Nc3cc(C(F)(F)F)nc4ncnn34)C(C)(C)O)cc2)CC1` (single isomer, unassigned) [Example 179, (1S or R)-2-Methyl-1-[4-(1-methylcyclopropyl)phenyl]-1-{[5-(trifluoromethyl) [1,2,4]triazolo [1,5-a]pyrimidin-7-yl]amino} propan-2-ol], the Ki is above 2960 nM.

`COCC(Nc1cc(C(F)(F)F)nc2ncnn12)c1ccc(C(F)(F)F)c(F)c1` (single isomer, unassigned) [Example 218, (S)- or (R)-N-(1-(3-Fluoro-4-(trifluoromethyl)phenyl)-2-methoxyethyl)-5-(trifluoromethyl)-[1,2,4]triazolo [1,5-a]pyrimidin-7-amine]: the inhibitory constant (Ki) is above 2960 nM.

Consider `Cc1cc(N(C)C(c2ccc(OC(F)(F)F)c(F)c2)C(C)(C)O)n2ncnc2n1` (single isomer, unassigned) [Example 247, (R)- or (S)-1-(3-Fluoro-4-(trifluoromethoxy)phenyl)-2-methyl-1-(methyl(5-methyl-[1,2,4]triazolo [1,5-a]pyrimidine-7-yl)amino)propan-2-ol], for which the Ki turned out to be 24 nM.

For the compound `CC(C)(O)C(Nc1cc(C2CC2)nc2ncnn12)c1ccc(OC(F)(F)F)cc1F` (single isomer, unassigned) [Example 143, (1R or S)-1-[(5- Cyclopropyl [1,2,4]triazolo [1,5-a]pyrimidin-7-yl)amino)-1-[2-fluoro-4-(trifluoro-methoxy)phenyl]-2-methylpropan-2-ol], the Ki was determined as 97 nM.

Regarding `C[C@@H](Nc1cc(CO)cc2ncnn12)c1ccc(C(F)(F)F)cc1` [Example 267, [5-({(1R)-1-[4-(Trifluoromethyl)phenyl]ethyl}amino)[1,2,4]triazolo[1,5-a]pyridin-7-yl] methanol], the Ki came to 236 nM.

In the case of `Cc1cc(N[C@@H](c2ccc(OC(F)(F)F)cc2)C(C)(C)O)n2ncnc2n1` [Example 96, (1S)-2-Methyl-1-[(5-methyl [1,2,4]triazolo[1,5-a]pyrimidin-7-yl)amino]-1-[4-(trifluoromethoxy)phenyl]propan-2-ol], the Ki turned out to be 15 nM.

In the case of `Cc1cc(N[C@@H](c2ccc(OC(F)(F)F)cc2Cl)C(C)(C)O)n2ncnc2n1` [Example 100, (1S)-1-[2-Chloro-4-(trifluoromethoxy)phenyl]-2-methyl-1-[(5-methyl[1,2,4]triazolo[1,5-a]pyrimidin-7-yl)amino]propan-2-ol], the Ki turned out to be 4.3 nM.

For the compound `Cc1cc(N[C@H](C)c2ccc(SC(F)(F)F)c(F)c2)n2ncnc2n1` [Example 11, N-[(1R)-1-{3-Fluoro-4-[(trifluoromethyl)sulfanyl]phenyl}ethyl]-5-methyl[1,2,4]triazolo [1,5-a]pyrimidin-7-amine], the Ki came to 18 nM.

As to `Cc1cc(N[C@H](C)c2ccc(C3(C)CC3)cc2)n2ncnc2n1` [Example 15, 5-Methyl-N-{(1R)-1-[4-(1-methylcyclopropyl)phenyl]ethyl} [1,2,4]triazolo[1,5-a]pyrimidin-7-amine], the inhibitory constant (Ki) stood at 173 nM.
